How the values were obtained:
[1] = Subsequent investigations of activity of the components of TQ 725; details: context: diabetes; no method given
[2] = test system: MIN-6 cell line; assay: Glucose stimulated insulin secretion assay, Example 5; format: cell-based, mouse; details: MIN-6, glucose 2, 10 and 20 mM, 1 hour
Procedure: In this test, a glucose stimulated insulin secretion assay was performed using the MIN-6 cell line and compounds C1 and C2 of Example 4. The test details and assay conditions are set forth below.
(§1) The cells were washed with KRB containing 0.1% BSA and starved for 1 hour in 2 mM glucose-KRB/BSA at 37° C. in 5% CO2. Following starvation, the cells were treated with or without the compounds at varying glucose concentrations of 2 mM, 10, mM, and 20 mM in KRB/BSA for 1 hour at 37° C. in 5% CO2. The amount of secreted mouse insulin was measured in the KRB/BSA incubation buffer using the mouse insulin ELISA kit from Mercer EXPert Assays. The cells were then lysed for protein quantification. The data presented in FIGS. 5-6 illustrate the secreted insulin test results for glucose and diazoxide, while FIGS. 7-9 (compound C1) and 10-12 (compound C2) illustrate the secreted insulin test results using C1 and C2. The data presented in FIGS. 7-12 are presented as the fold changes in the secreted insulin per milligram protein per hour, compared to the cell control.

[3] = test system: NOD mouse model of diabetes; assay: NOD mouse model of diabetes, TQ 725 as single agent; format: in vivo, mouse (NOD/ShiLtJ)
Procedure: This test was designed to evaluate the in vivo activity of the TQ-harmaline reaction product (referred to as “TQ 725”), which was a mixture of compounds I-IV and VI (MW about 378), V and VII (MW about 360), and VIIID and VIIIF (MW about 540), as single agent in the NOD mouse model of diabetes. […] The female NOD mice show evidence of diabetes onset by age week 12 and 70% presenting with diabetes (non-fasting plasma glucose higher than 250 mg/dl) by age week 20. The significant endpoint is assessment of weekly blood glucose levels.
The pancreatic tissues from the test mice were assayed by conventional insulin staining according to the following ratings: 0—no staining on islet cells; 1—of islets with positive stains, stain cells are minimal in number; 2—of islets with positive stain, stain cells are less than 50% of the cells; 3—of the islets with positive stains, stain cells are greater than 50% of the cells.
FIGS. 1 and 2 illustrate the body weight and blood glucose level results collected during the test. In each of these Figures, graph A refers to Group 1, the vehicle control (PO) QD to end; graph B refers to Group 2, 725.001 100 mg/kg days 1-27, followed by 400 mg/kg days 28 to end (PO); graph C refers to Group 3, 725.001 200 mg/kg (PO) QD to end; and graph D refers to Group 4, metformin 600 mg/kg (in H2O) Ad libitum days 1-8, followed by 600 mg/kg (PO) QD days 9 to end.

[4] = test system: MIN-6 cell line; assay: Glucose stimulated insulin secretion assay, Example 6; format: cell-based, mouse; details: MIN-6, 100 nM, 10 mM of glucose, 1 hour
Procedure: In this test, a glucose stimulated insulin secretion assay was performed using the MIN-6 cell line and a compound mixture of compounds VIIID and VIIIF (MW about 540), referred to as C3. The test details and assay conditions are set forth below.
as §1, with “data is” for “data”, “13 (gliclazide)” for “5-6 illustrate the secreted insulin test results for glucose”, “14-16 (C3)” for “diazoxide, while FIGS. 7-9 (compound C1) and 10-12 (compound C2) illustrate the secreted insulin test results using C1 and C2. The data presented in FIGS. 7-12 are presented”, “change” for “changes”

[5] = test system: MIN-6 cell line; assay: Glucose stimulated insulin secretion assay, Example 7; format: cell-based, mouse; details: 2 hours
Procedure: In this test, another glucose stimulated insulin secretion assay was performed using two test compounds, namely C1 (MW about 378) and C3 (MW about 540). The MIN-6 cell line was used and the test details and assay conditions are set forth below.
The cells were revived and maintained in T-flasks. Upon reaching the required confluency, the cells were seeded in 96-well plates. The seeded cells were serum-starved in the presence of glucose for 30 minutes at 37° C. in 5% CO2. Following starvation, the cells were treated with or without the compounds at the varying glucose concentrations in KRB for 2 hours at 37° C. in 5% CO2. The cell supernatants were collected and tested for insulin secretion using the mouse insulin ELISA kit from Mercer EXPert Assays.

COc1ccc2c(c1)=NC1C(/C=C3/C=C(C(C)C)C(=O)C=C3C)=NCCC=21 (centres unmarked) [VII]
relative activity among the components of TQ 725 [1]: most active

CC1=NS(=O)(=O)c2cc(Cl)ccc2N1 [Diazoxide]
effect on insulin secretion [2]: significant inhibition of insulin secretion

CN(C)C(=N)N=C(N)N [Metformin]
body weight ([3]; Group 4: 600 mg/kg, data not deemed reliable): trended downwardly
insulin staining of pancreatic tissues, mean value ([3]; Group 4: ad libitum days 1-8, 600 mg/kg PO days 9-56, rating scale 0-3): 0.50

Cc1ccc(S(=O)(=O)NC(=O)NN2CC3CCCC3C2)cc1 (centres unmarked) [Gliclazide]
effect on insulin secretion [4]: enhanced insulin secretion
insulin secretion at the lower glucose concentration ([5]; MIN-6, glucose 2 mM, 100 μM): enhanced insulin secretion was observed
insulin secretion at the higher glucose concentration ([5]; MIN-6, glucose 25 mM): saturation effect

COc1ccc2c(c1)=NC1C(CC3(O)C=C(C(C)C)C(=O)C=C3C)=NCCC=21 (centres unmarked) [VI]
relative activity among the components of TQ 725 [1]: most active
